# Laboratory results taken from US20120283274A1, “CRYSTALLINE FORMS OF SUBSTITUTED PYRAZOLOPYRIMIDINES” (priority 2009, published 2012).
# Legend:
# Type in all cases: physicochemical
# [1] = DVS (dynamic vapour sorption), hygroscopicity; conditions: for hygroscopicity: DVS 50%->0%->95%->50% r.h.; for post-DVS Raman spectrum, change in form: after DVS cycle; for mass change Δm: change of relative humidity (r.h.) from 50 to 85%
# Method: DVS (50%->0%->95%->50% r.h.) was performed on the samples as mentioned above. The results are summarized in the following:
# Surface Measurement Systems Ltd. DVS-1 water vapour sorption analyzer and Projekt Messtechnik SPS 11-100n multi-sample water vapor sorption analyzer were used.
# The sample was allowed to equilibrate at 50% relative humidity (r.h.) before starting e.g. the following predefined humidity program: • 2 h at 0% r.h. • 0 to 95% r.h. (5%/h) • 3 h at 95% r.h. • 95 to 0% (10%/h) • 2 h at 0% r.h.
# [2] = Determination of dissolution rate of a compressed tablet (UV-absorption spectroscopy); parameters: key to Dissolution rate: —: In case that no data given in the Table 3 it was found, that the dissolution rate did not change significantly in moving from the second to the third and fourth sectors; conditions: for Dissolution rate: 0.15 M aqueous potassium chloride, 23° C., compressed tablet
# Text: Only one face of the tablet was exposed to the dissolution medium, which contained an acetate/phosphate buffer system to minimise perturbation of the experimental pH from dissolution of the drug. Stirring of the solution was continuous and at a constant rate. The absorption data was converted to absolute sample weights using previously determined, pH-dependent, molar extinction coefficients. An appropriate wavelength range was chosen to ensure that spectroscopic data with an absorption value of <1.3 was analyzed, avoiding erroneous dissolution results due to saturation of the […]. Dissolution rates were calculated from the fit of a first-order exponential equation to the experimental data obtained.
# The dissolution rates listed in the Table 3 were determined at pH 2.0, 3.9, 5.4, and 7.3 (+/−0.1), at a temperature of 23° C. (+/−1° C.).
# [3] = Determination of aqueous solubility (HPLC)
# Method: The samples were shaken with a temperature controlled “Thermomixer comfort” from Eppendorf at 800 rpm (24 hours, 23° C.). The resulting suspensions were filtered with Millipore Centrifugal Filter Device UFC30VVNB (0.1) and Centrifuge Hettich EBA 12 R (10.000 g).
# The pH of the filtrate was measured, and the concentration of the free base was determined by HPLC (method is described in Example 7).
# Suspension of co-crystal in water was agitated with a temperature controlled. Thermomixer comfort” from Eppendorf with 800 rpm (24 hours, 23° C.). The suspension was filtered with Millipore Centrifugal Filter Device UFC30VVNB (0.1μ) and Centrifuge Hettich EBA 12 R (10,000 g).
Compound,hygroscopicity [1],"post-DVS Raman spectrum, change in form [1]",mass change Δm [1],Dissolution rate ([2]; pH 2.0) [µg/min],Dissolution rate ([2]; pH 3.9) [µg/min],Dissolution rate ([2]; pH 5.4),Dissolution rate ([2]; pH 7.3),"total water content ([1]; humidity increased to 95% r.h., equilibrium reached)","solubility at 24 h ([3]; thermodynamic from solid, water, 24 hours, 23° C., at pH 8.5, near the detection limit) [µg/mL]",solubility in water or aqueous solvents ([3]; water or aqueous solvents),enhancement of the dissolution rate compared to the free drug ([2]; at pH 2) [fold]
"C[C@@H]1c2ccccc2CCN1C(=O)c1cc2ncc(Br)cn2n1.O=C(O)c1cc(O)ccc1O [Example 3c, co-crystal of (6-bromo-pyrazolo[1,5-a]pyrimidin-2-yl)-(1(R)-methyl-3,4-dihydro-1H-isoquinolin-2-yl)-methanone and gentisic acid]",not hygroscopic,does not indicate any change in form,about 0.1%,2.04,1.06,—,—,,,,
"C[C@@H]1c2ccccc2CCN1C(=O)c1cc2ncc(Br)cn2n1.O=C(O)c1ccc2ccccc2c1O [Example 4c, co-crystal of (6-bromo-pyrazolo[1,5-a]pyrimidin-2-yl)-(1(R)-methyl-3,4-dihydro-1H-isoquinolin-2-yl)-methanone and xinafoic acid]",slightly hygroscopic,does not indicate any change in form,about 1%,0.46,0.68,1.26 µg/min,1.44 µg/min,approximately 2 wt.-%,,,
"C[C@@H]1c2ccccc2CCN1C(=O)c1cc2ncc(Br)cn2n1 [Free drug compound, (6-bromo-pyrazolo[1,5-a]pyrimidin-2-yl)-(1(R)-methyl-3,4-dihydro-1H-isoquinolin-2-yl)-methanone]",,,,0.58,0.22,—,—,,< 10,,
CC1c2ccccc2CCN1C(=O)c1cc2ncc(Br)cn2n1 (centres unmarked) [compound A],,,,,,,,,,below 10 μg/mL,
"co-crystal of (6-bromo-pyrazolo[1,5-a]pyrimidin-2-yl)-(1(R)-methyl-3,4-dihydro-1H-isoquinolin-2-yl)-methanone and succinic acid [Example 2a]",not hygroscopic,does not indicate any change in form,about 0.1%,2.06,1.58,—,—,,,,3
